Reference: publication PMC6835510, “Magnificamide, a β-Defensin-Like Peptide from the Mucus of the Sea Anemone Heteractis magnifica, Is a Strong Inhibitor of Mammalian α-Amylases” (Marine Drugs, 2019)
Bridge positions count the residues as written; N and C are the ends. Ends that are not written are not given here.

Key:
[1] = system: fungi, Gram-positive or Gram-negative bacteria; test: Antimicrobial screening, overall; format: cell-based; conditions: 1, 5, 10, 20 µM
Experimental: (§1) The antimicrobial activity of r-magnificamide was tested against Gram-positive (Staphylococcus aureus ATCC 21027 and Bacillus subtilis ATCC6633), Gram-negative bacteria (Escherichia coli VKPM B-7935 and Pseudomonas aeruginosa ATCC 27853), and the fungus Candida albicans KMM 455 by the agar dilution method. Microbial strains were taken from the American Type Culture Collection (ATCC), Russian National Collection of Industrial Microorganisms (VKPM), and Collection of Marine Microorganisms (KMM) (Pacific Institute of Bioorganic Chemistry FEB RAS). To obtain a microbial lawn, 0.1 mL of a cell suspension (0.5 × 10^8 cells/mL) was uniformly distributed on agar surface in Petri dishes (15 g/L tryptic soy broth, 2 g/L bacto yeast extract, 1 g/L glucose, and 20 g/L agar for bacteria; for fungi 10 g/L of glucose was added). Wells with a diameter of 6 mm were punched into the agar and filled with 100 µL of the peptide solution at concentrations 1, 5, 10, and 20 µM. The plates were then incubated for 18 h at 37 °C for bacteria, and at 30 °C for the fungus. Minimum inhibitory concentration was determined by measuring the clear zone of inhibition around each well. All assays were performed independently three times.

[2] = system: BgNav1; test: Two-electrode voltage-clamp; format: cell-based, Blattella germanica; conditions: 10 µM; insect channel; Xenopus laevis oocytes; 18–22 °C
Text: (§2) For the expression of Nav channels (mammalian rNav1.2, rNav1.4, hNav1.5, mNav1.6 and hNav1.8 channels; the insect channel BgNav1 from Blattella germanica; and the auxiliary subunits rβ1, hβ1, and TipE) and Kv channels (mammalian rKv1.1, rKv1.2, hKv1.3, rKv1.4, rKv1.5, rKv1.6, rKv2.1, hKv3.1, rKv4.2, hKv10.1, and hERG; and Drosophila Shaker’s IR) in Xenopus laevis oocytes; the linearized plasmids were transcribed using the T7 or SP6 mMESSAGE-mMACHINE transcription kit (Ambion, Carlsbad, CA, USA). The harvesting of stage V–VI oocytes from anesthetized female Xenopus laevis frog was previously described. Oocytes were injected with 50 nL of cRNA at a concentration of 1 ng/nL using a microinjector (Drummond Scientific, Broomall, PA, USA). The oocytes were incubated in a solution containing 96-mM NaCl, 2-mM KCl, 1.8-mM CaCl2, 2-mM MgCl2, and 5-mM HEPES (pH 7.4), supplemented with 50 mg/L gentamycin sulfate.
(§3) Two-electrode voltage-clamp recordings were performed at room temperature (18–22 °C) using a Geneclamp 500 amplifier (Molecular Devices, Downingtown, PA, USA) controlled by a pClamp data acquisition system (Axon Instruments, Union City, CA, USA). Whole cell currents from oocytes were recorded 1–4 days after injection. […] All data were analyzed using pClamp Clampfit 10.0 (Molecular Devices, Downingtown, PA, USA) and Origin 7.5 software (Originlab, Northampton, MA, USA).

[3] = system: Shaker IR; test: Two-electrode voltage-clamp; format: cell-based, Drosophila; conditions: 10 µM; insect channel; Xenopus laevis oocytes; 18–22 °C
Text: as §2, §3

[4] = system: Pseudomonas aeruginosa ATCC 27853; test: Antimicrobial activity, agar dilution method; format: cell-based; conditions: 1, 5, 10, 20 µM; 100 µL in 6 mm agar wells; 18 h, 37 °C; clear zone; three independent assays
Experimental: as §1

[5] = system: Candida albicans KMM 455; test: Antimicrobial activity, agar dilution method; format: cell-based; conditions: 1, 5, 10, 20 µM; 100 µL in 6 mm agar wells; 18 h, 30 °C; clear zone; three independent assays
Experimental: as §1

[6] = system: Bacillus subtilis ATCC6633; test: Antimicrobial activity, agar dilution method; format: cell-based; conditions: 1, 5, 10, 20 µM; 100 µL in 6 mm agar wells; 18 h, 37 °C; clear zone; three independent assays
Experimental: as §1

[7] = system: Staphylococcus aureus ATCC 21027; test: Antimicrobial activity, agar dilution method; format: cell-based; conditions: 1, 5, 10, 20 µM; 100 µL in 6 mm agar wells; 18 h, 37 °C; clear zone; three independent assays
Experimental: as §1

[8] = system: Escherichia coli VKPM B-7935; test: Antimicrobial activity, agar dilution method; format: cell-based; conditions: 1, 5, 10, 20 µM; 100 µL in 6 mm agar wells; 18 h, 37 °C; clear zone; three independent assays
Experimental: as §1

[9] = system: rNav1.4; test: Two-electrode voltage-clamp; format: cell-based, mammalian; conditions: 10 µM; Xenopus laevis oocytes; 18–22 °C
Text: as §2
(§4) Two-electrode voltage-clamp recordings were performed at room temperature (18–22 °C) using a Geneclamp 500 amplifier (Molecular Devices, Downingtown, PA, USA) controlled by a pClamp data acquisition system (Axon Instruments, Union City, CA, USA). Whole cell currents from oocytes were recorded 1–4 days after injection. The bath solution’s composition was 96-mM NaCl, 2-mM KCl, 1.8-mM CaCl2, 2-mM MgCl2, and 5-mM HEPES (pH 7.4). Toxins were applied directly to the bath. Resistances of both electrodes were kept between 0.8 and 1.5 MΩ. The elicited currents were sampled at 20 kHz (Nav) or 2 kHz (Kv), filtered at 2 kHz (Nav) or 0.5 kHz (Kv) using a four-pole low-pass Bessel filter. Leak subtraction was performed using a -P/4 protocol. […] For the electrophysiological analysis, a number of protocols were applied from a holding potential of −90 mV with a start-to-start interval of 0.2 Hz. Kv1.1–Kv1.6 and Shaker currents were evoked by 250-ms depolarizations to 0 mV followed by a 250 ms pulse to −50 mV from a holding potential of −90 mV. Current traces of hERG channels were elicited by applying a +40 mV prepulse for 2 s followed by −120 mV for 2 s. Kv2.1, Kv3.1, and Kv4.2 currents were elicited by 250 ms pulses to +20 mV from a holding potential of −90 mV. Kv10.1 currents were evoked by 2-s depolarizing pulses to 0 mV from a holding potential of −90 mV. Sodium current traces were evoked by 100-ms depolarization to the voltage corresponding to maximal sodium current in control conditions. All data were analyzed using pClamp Clampfit 10.0 (Molecular Devices, Downingtown, PA, USA) and Origin 7.5 software (Originlab, Northampton, MA, USA).

[10] = system: rKv1.1; test: Two-electrode voltage-clamp; format: cell-based, mammalian; conditions: 10 µM; Xenopus laevis oocytes; 18–22 °C
Text: as §2, §4

[11] = system: hNav1.8; test: Two-electrode voltage-clamp; format: cell-based, mammalian; conditions: 10 µM; Xenopus laevis oocytes; 18–22 °C
Text: as §2, §4

[12] = system: rKv2.1; test: Two-electrode voltage-clamp; format: cell-based, mammalian; conditions: 10 µM; Xenopus laevis oocytes; 18–22 °C
Text: as §2, §4

[13] = system: rNav1.2; test: Two-electrode voltage-clamp; format: cell-based, mammalian; conditions: 10 µM; Xenopus laevis oocytes; 18–22 °C
Text: as §2, §4

[14] = system: hKv1.3; test: Two-electrode voltage-clamp; format: cell-based, mammalian; conditions: 10 µM; Xenopus laevis oocytes; 18–22 °C
Text: as §2, §4

[15] = system: hKv10.1; test: Two-electrode voltage-clamp; format: cell-based, mammalian; conditions: 10 µM; Xenopus laevis oocytes; 18–22 °C
Text: as §2, §4

[16] = system: rKv1.4; test: Two-electrode voltage-clamp; format: cell-based, mammalian; conditions: 10 µM; Xenopus laevis oocytes; 18–22 °C
Text: as §2, §4

[17] = system: hKv3.1; test: Two-electrode voltage-clamp; format: cell-based, mammalian; conditions: 10 µM; Xenopus laevis oocytes; 18–22 °C
Text: as §2, §4

[18] = system: hNav1.5; test: Two-electrode voltage-clamp; format: cell-based, mammalian; conditions: 10 µM; Xenopus laevis oocytes; 18–22 °C
Text: as §2, §4

[19] = system: rKv1.2; test: Two-electrode voltage-clamp; format: cell-based, mammalian; conditions: 10 µM; Xenopus laevis oocytes; 18–22 °C
Text: as §2, §4

[20] = system: rKv4.2; test: Two-electrode voltage-clamp; format: cell-based, mammalian; conditions: 10 µM; Xenopus laevis oocytes; 18–22 °C
Text: as §2, §4

SEGTSCYIYHGVYGICKAKCAEDMKAMAGMGVCEGDLCCYKTPW (disulfide 6-38, 16-33, 20-39) [r-magnificamide]
Antimicrobial activity, overall [1]: did not reveal activity against fungi, Gram-positive or Gram-negative bacteria | Antimicrobial activity, overall ([1]; listed as recombinant analog of magnificamide): does not show antimicrobial or channel modulating activities | Channel modulating activity, BgNav1 [2]: Not active | Channel modulating activity, Shaker [3]: Not active | Antimicrobial activity, P. aeruginosa [4]: Not active | Antimicrobial activity, C. albicans [5]: Not active | Antimicrobial activity, B. subtilis [6]: Not active | Antimicrobial activity, S. aureus [7]: Not active | Antimicrobial activity, E. coli [8]: Not active | Channel modulating activity, Nav1.4 [9]: Not active | Channel modulating activity, Kv1.1 [10]: Not active | Channel modulating activity, Nav1.8 [11]: Not active | Channel modulating activity, Kv2.1 [12]: Not active | Channel modulating activity, Nav1.2 [13]: Not active | Channel modulating activity, Kv1.3 [14]: Not active | Channel modulating activity, Kv10.1 [15]: Not active | Channel modulating activity, Kv1.4 [16]: Not active | Channel modulating activity, Kv3.1 [17]: Not active | Channel modulating activity, Nav1.5 [18]: Not active | Channel modulating activity, Kv1.2 [19]: Not active | Channel modulating activity, Kv4.2 [20]: Not active
